Patent US9763445B2, “Safened herbicidal compositions comprising a pyridine carboxylic acid herbicide” (Dow AgroSciences, LLC, priority 2014, dated 2017)

How the values were obtained:
thistle (CIRAR) = experiment: Postemergence greenhouse trial, % visual injury on thistle; format: in vivo, Cirsium arvense; conditions: Cirsium arvense, post-emergence; alone, 35 g/ha; read-out: % visual injury, Ob
Experimental: (§1) Seeds of the desired test plant species were planted in Sun Gro MetroMix® 306 planting mixture, which typically has a pH of 6.0 to 6.8 and an organic matter content of about 30 percent, in plastic pots with a surface area of 103.2 square centimeters (cm^2). When required to ensure good germination and healthy plants, a fungicide treatment and/or other chemical or physical treatment was applied. The plants were grown for 7-36 days (d) in a greenhouse with an approximate 14-hour (h) photoperiod which was maintained at about 23° C. during the day and 22° C. during the night. Nutrients and water were added on a regular basis and supplemental lighting was provided with overhead metal halide 1000-Watt lamps as necessary. The plants were employed for testing when they reached the second or third true leaf stage.
(§2) Weighed amounts of technical material were dissolved in a volume of 97:3 volume per volume (v/v) acetone/dimethyl sulfoxide (DMSO) to stock solutions. […] The concentrated stock solutions were diluted with an aqueous mixture of 1.5% v/v of Agri-dex crop oil concentrate to provide the appropriate application rates. Compound requirements are based upon a 12 milliliter (mL) application volume at a rate of 187 liters per hectare (L/ha). Stocks solutions of the safeners were prepared following the same procedure. Spray solutions of the safeners and experimental compound mixtures were prepared by adding the stock solutions to the appropriate amount of dilution solution to form a 12 mL spray solution in two-way combinations. Formulated compounds were applied to the plant material with an overhead Mandel track sprayer equipped with 8002E nozzles calibrated to deliver 187 L/ha over an application area of 0.503 square meters (m^2) at a spray height of 18 inches (43 centimeters (cm)) above average plant canopy. Control plants were sprayed in the same manner with the solvent blank. All herbicide application (component a) rates are in g ae/ha and all safener (component b) rates are in g ai/ha.
(§3) The treated plants and control plants were placed in a greenhouse as described above and watered by sub-irrigation to prevent wash-off of the test compounds. After 20-22 d, the condition of the test plants as compared with that of the control plants was determined visually and scored on a scale of 0 to 100 percent where 0 corresponds to no injury and 100 corresponds to complete kill. The condition of the test plants was compared with that of the control plants as determined visually and scored on a scale of 0 to 100 percent, where 0 corresponds to no injury and 100 corresponds to complete kill. Colby's equation was used to determine the herbicidal effects expected from the mixtures.
(§4) The safener cloquintocet-mexyl was combined with compound 1, compound 2, compound 4, compound 5, and compound 6, and applied to corn/maize (ZEAMX) and spring wheat (TRZAS) and the phytotoxicity of the herbicidal compositions was measured. In addition, the efficacy of the herbicidal composition on velvetleaf (ABUTH, Abutilon theophrasti), pigweed (AMARE, Amaranthus retroflexus), winter rape (BRSNW, Brassica napus), lambsquarters (CHEAL, Chenopodium album), thistle (CIRAR, Cirsium arvense), nutsedge (CYPES, Cyperus esculentus), poinsettia (EPHHL, Euphorbia heterophylla), wild buckwheat (POLCO, Polygonum convolvulus), giant foxtail (SETFA, Setaria faberi), and chickweed (STEME, Stellaria media) was evaluated. […]

winter rape (BRSNW) = experiment: Postemergence greenhouse trial, % visual injury on winter rape; format: in vivo, Brassica napus; conditions: Brassica napus, post-emergence; alone, 35 g/ha; read-out: % visual injury, Ob
Summary of the method: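 Plants at second or third true leaf stage, greenhouse-grown (14 h photoperiod, ~23/22° C.), sprayed postemergence with compounds alone or with safener cloquintocet-mexyl in 1.5% v/v Agri-dex crop oil at 187 L/ha. Visual injury scored 0–100% versus solvent-blank controls after 20-22 d; expected mixture effects by Colby's equation.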

lambsquarters (CHEAL) = experiment: Postemergence greenhouse trial, % visual injury on lambsquarters; format: in vivo, Chenopodium album; conditions: Chenopodium album, post-emergence; alone, 35 g/ha; read-out: % visual injury, Ob
Experimental: as §1, §2, §3
(§5) The safener cloquintocet-mexyl was combined with compound 1, compound 2, compound 4, compound 5, and compound 6, and applied to corn/maize (ZEAMX) and spring wheat (TRZAS) and the phytotoxicity of the herbicidal compositions was measured. In addition, the efficacy of the herbicidal composition on velvetleaf (ABUTH, Abutilon theophrasti), pigweed (AMARE, Amaranthus retroflexus), winter rape (BRSNW, Brassica napus), lambsquarters (CHEAL, Chenopodium album), thistle (CIRAR, Cirsium arvense), nutsedge (CYPES, Cyperus esculentus), poinsettia (EPHHL, Euphorbia heterophylla), wild buckwheat (POLCO, Polygonum convolvulus), giant foxtail (SETFA, Setaria faberi), and chickweed (STEME, Stellaria media) was evaluated.
(§6) The safener cloquintocet-mexyl was combined with compound 1, compound 2, compound 3, compound 7, compound 8, compound 9, compound 10, compound 11, compound 12, compound 13, compound 14, compound 15, compound 16, compound 17, compound 18, compound 19, and compound 20, and applied to spring wheat (TRZAS), winter wheat (TRZAW), and spring barley (HORVS) and the phytotoxicity of the herbicidal compositions was measured. […]

spring wheat (TRZAS) = experiment: Postemergence greenhouse trial, % visual injury on spring wheat; format: in vivo, Triticum aestivum; conditions: alone, 35 g/ha
Summary of the method: (§7)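 Postemergence greenhouse spray (187 L/ha, 1.5% v/v Agri-dex in water, acetone/DMSO stocks) on plants at second–third true leaf stage, ~23/22 °C, 14 h photoperiod; herbicides in g ae/ha, safener cloquintocet-mexyl in g ai/ha. Visual injury 0–100% versus solvent-blank controls after 20–22 d; Colby's equation gave expected mixture effects.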

chickweed (STEME) = experiment: Postemergence greenhouse trial, % visual injury on chickweed; format: in vivo, Stellaria media; conditions: alone, 35 g/ha
Experimental: as §1, §2, §3, §4

poinsettia (EPHHL) = experiment: Postemergence greenhouse trial, % visual injury on poinsettia; format: in vivo, Euphorbia heterophylla; conditions: alone, 35 g/ha
Experimental: as §1
Weighed amounts of technical material were dissolved in a volume of 97:3 volume per volume (v/v) acetone/dimethyl sulfoxide (DMSO) to stock solutions. […] The concentrated stock solutions were diluted with an aqueous mixture of 1.5% v/v of Agri-dex crop oil concentrate to provide the appropriate application rates. Compound requirements are based upon a 12 milliliter (mL) application volume at a rate of 187 liters per hectare (L/ha). Stocks solutions of the safeners were prepared following the same procedure. […]
as §3, with “Colby's equation was used to determine the herbicidal effects expected from the mixtures.” left out
as §4

wild buckwheat (POLCO) = experiment: Postemergence greenhouse trial, % visual injury on wild buckwheat; format: in vivo, Polygonum convolvulus; conditions: alone, 35 g/ha
Experimental: as §1, §2, §3, §5, §6

velvetleaf (ABUTH) = experiment: Postemergence greenhouse trial, % visual injury on velvetleaf; format: in vivo, Abutilon theophrasti; conditions: alone, 35 g/ha
Experimental: as §1, §2, §3, §5, §6

corn/maize (ZEAMX) = experiment: Postemergence greenhouse trial, % visual injury on corn/maize; format: in vivo, Zea mays; conditions: alone, 35 g/ha
Experimental: as §1, §2, §3, §4

pigweed (AMARE) = experiment: Postemergence greenhouse trial, % visual injury on pigweed; format: in vivo, Amaranthus retroflexus; conditions: Amaranthus retroflexus, post-emergence; alone, 35 g/ha; read-out: % visual injury, Ob
Summary of the method: as §7

giant foxtail (SETFA) = experiment: Postemergence greenhouse trial, % visual injury on giant foxtail; format: in vivo, Setaria faberi; conditions: alone, 35 g/ha
Experimental: as §1
Weighed amounts of technical material were dissolved in a volume of 97:3 volume per volume (v/v) acetone/dimethyl sulfoxide (DMSO) to stock solutions. […] The concentrated stock solutions were diluted with an aqueous mixture of 1.5% v/v of Agri-dex crop oil concentrate to provide the appropriate application rates. Compound requirements are based upon a 12 milliliter (mL) application volume at a rate of 187 liters per hectare (L/ha). […]
as §3, with “Colby's equation was used to determine the herbicidal effects expected from the mixtures.” left out
The safener cloquintocet-mexyl was combined with compound 1, compound 2, compound 4, compound 5, and compound 6, and applied to corn/maize (ZEAMX) and spring wheat (TRZAS) and the phytotoxicity of the herbicidal compositions was measured. […]

common sorghum (SORVU) = experiment: Postemergence greenhouse trial, % visual injury on common sorghum; format: in vivo, Sorghum vulgare; conditions: alone, 35 g/ha
Experimental: as §1, §2
as §3, with “mixtures. […]” for “mixtures.”
The safener cloquintocet-acid and a number of agriculturally acceptable esters and salts (-mexyl, -dimethylammonium salt and -triethylammonium salt) were combined in varying ratios with compound 1 and applied to spring wheat (TRZAS), winter wheat (TRZAW), and spring barley (HORVS), and the phytotoxicity of the herbicidal compositions was measured. In addition, the efficacy of the herbicidal composition on pigweed (AMARE, Amaranthus retroflexus), nutsedge (CYPES, Cyperus esculentus), common sunflower (HELAN, Helianthus annuus), and common sorghum (SORVU, Sorghum vulgare).

nutsedge (CYPES) = experiment: Postemergence greenhouse trial, % visual injury on nutsedge; format: in vivo, Cyperus esculentus; conditions: alone, 35 g/ha
Experimental: as §1, §2, §3, §4
The safener cloquintocet-acid and a number of agriculturally acceptable esters and salts (-mexyl, -dimethylammonium salt and -triethylammonium salt) were combined in varying ratios with compound 1 and applied to spring wheat (TRZAS), winter wheat (TRZAW), and spring barley (HORVS), and the phytotoxicity of the herbicidal compositions was measured. […]

wild pansy (VIOTR) = experiment: Postemergence greenhouse trial, % visual injury on wild pansy; format: in vivo, Viola tricolor; conditions: alone, 35 g/ha
Experimental: as §1, §2
as §3, with “mixtures. […]” for “mixtures.”

SMILES | pest or weed control at 35 g/ha (thistle (CIRAR)) | plant injury at 35 g/ha (winter rape (BRSNW)) | pest or weed control at 35 g/ha (lambsquarters (CHEAL)) | % visual injury, Ob (spring wheat (TRZAS)) | % visual injury, Ob (chickweed (STEME)) | % visual injury, Ob (poinsettia (EPHHL)) | % visual injury, Ob (wild buckwheat (POLCO)) | % visual injury, Ob (velvetleaf (ABUTH)) | % visual injury, Ob (corn/maize (ZEAMX)) | pest or weed control at 35 g/ha (pigweed (AMARE)) | % visual injury, Ob (giant foxtail (SETFA)) | % visual injury, Ob (common sorghum (SORVU)) | % visual injury, Ob (nutsedge (CYPES)) | % visual injury, Ob (wild pansy (VIOTR))
COC(=O)c1nc(-c2ccc3ccn(C(=O)C(C)(C)C)c3c2F)c(F)c(N)c1Cl [compound 5] | 80% | 97% | 100% | 45% | 85% | 100% | 100% | 80% | 35% | 100% | 60% |  |  | 
COC(=O)c1nc(-c2ccc3ccn(C(C)=O)c3c2F)c(F)c(N)c1Cl [compound 3] | 50% | 30% | 85% | 30% | 70% |  | 97% | 50% | 0% | 95% | 60% | 10% | 10% | 10%
